#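 Cells were grown in 96-well plates and exposed to each compound for 48 hours at five concentrations; endpoints were interpolated linearly between bracketing concentrations, or set to the highest concentration if not reached. TGI denotes the concentration required for complete inhibition of growth.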
# How the values were obtained:
# Experiment in all cases: NCI-60 cell line screen, 48 h
# [1] = system: 786-0 renal
# [2] = system: UO-31 renal
# [3] = system: BT-549 breast
# [4] = system: A498 renal
# [5] = system: M14 melanoma
# [6] = system: A549 NSCLC
# [7] = system: UACC-62 melanoma
# [8] = system: HOP-92 NSCLC
# [9] = system: SR leukemia
# [10] = system: IGROV1 ovarian
# [11] = system: SK-OV-3 ovarian
# [12] = system: MCF7 breast
# [13] = system: HOP-62 NSCLC
# [14] = system: T-47D breast
# [15] = system: MDA-MB-435
# [16] = system: K-562 leukemia
# [17] = system: HL-60(TB) leukemia
# [18] = system: MDA-MB-231 breast
# [19] = system: DU-145 prostate
# [20] = system: OVCAR-8 ovarian
# [21] = system: ACHN renal
# [22] = system: SK-MEL-28 melanoma
# [23] = system: HT29 colon
# [24] = system: OVCAR-5 ovarian
# [25] = system: MOLT-4 leukemia
# [26] = system: NCI-H522 lung
# [27] = system: SK-MEL-5 melanoma
# [28] = system: CCRF-CEM leukemia
# [29] = system: SW-620 colon
# [30] = system: HCT-116 colon
# [31] = system: SNB-75 CNS
# [32] = system: RPMI-8226 leukemia
# [33] = system: MDA-N
# [34] = system: SF-268 CNS
# [35] = system: SF-539 CNS
# [36] = system: PC-3 prostate
# [37] = system: CAKI-1 renal
# [38] = system: NCI/ADR-RES ovarian
# [39] = system: KM12 colon
# [40] = system: EKVX NSCLC
# [41] = system: SK-MEL-2 melanoma
# [42] = system: HCT-15 colon
# [43] = system: MALME-3M melanoma
# [44] = system: SNB-19 CNS
# [45] = system: SN12C renal
# [46] = system: OVCAR-3 ovarian
# [47] = system: SF-295 CNS
# [48] = system: U251 CNS
# [49] = system: HCC-2998 colon
# [50] = system: COLO 205 colon
# [51] = system: UACC-257 melanoma
# [52] = system: NCI-H460 lung
# [53] = system: HS 578T breast
# [54] = system: OVCAR-4 ovarian
# [55] = system: RXF 393 renal
# [56] = system: NCI-H23 lung
# [57] = system: NCI-H226 lung
# [58] = system: LOX IMVI melanoma
# [59] = system: TK-10 renal
compound,measurement,setting,value
CCOP(C)(=O)C(Cc1c[nH]c2ccccc12)C(=O)O (stereo not drawn),TGI,[1],> 100 µM
same,TGI,[2],> 100 µM
same,TGI,[3],> 100 µM
same,TGI,[4],> 100 µM
same,TGI,[5],> 100 µM
same,TGI,[6],> 100 µM
same,TGI,[7],> 100 µM
same,TGI,[8],> 100 µM
same,TGI,[9],> 100 µM
same,TGI,[10],> 100 µM
same,TGI,[11],> 100 µM
same,TGI,[12],> 100 µM
same,TGI,[13],> 100 µM
same,TGI,[14],> 100 µM
same,TGI,[15],> 100 µM
same,TGI,[16],> 100 µM
same,TGI,[17],> 100 µM
same,TGI,[18],> 100 µM
same,TGI,[19],> 100 µM
same,TGI,[20],> 100 µM
same,TGI,[21],> 100 µM
same,TGI,[22],> 100 µM
same,TGI,[23],> 100 µM
same,TGI,[24],> 100 µM
same,TGI,[25],> 100 µM
same,TGI,[26],> 100 µM
same,TGI,[27],> 100 µM
same,TGI,[28],> 100 µM
same,TGI,[29],> 100 µM
same,TGI,[30],> 100 µM
same,TGI,[31],> 100 µM
same,TGI,[32],> 100 µM
same,TGI,[33],> 100 µM
same,TGI,[34],> 100 µM
same,TGI,[35],> 100 µM
same,TGI,[36],> 100 µM
same,TGI,[37],> 100 µM
same,TGI,[38],> 100 µM
same,TGI,[39],> 100 µM
same,TGI,[40],> 100 µM
same,TGI,[41],> 100 µM
same,TGI,[42],> 100 µM
same,TGI,[43],> 100 µM
same,TGI,[44],> 100 µM
same,TGI,[45],> 100 µM
same,TGI,[46],> 100 µM
same,TGI,[47],> 100 µM
same,TGI,[48],> 100 µM
same,TGI,[49],> 100 µM
same,TGI,[50],> 100 µM
COc1ccc(CN2C[C@H]3[C@@H](CC(=O)O[C@H]3C)CC2=O)cc1,TGI,[1],> 100 µM
same,TGI,[2],> 100 µM
same,TGI,[3],> 100 µM
same,TGI,[4],> 100 µM
same,TGI,[5],> 100 µM
same,TGI,[6],> 100 µM
same,TGI,[7],> 100 µM
same,TGI,[51],> 100 µM
same,TGI,[8],> 100 µM
same,TGI,[9],> 100 µM
same,TGI,[10],> 100 µM
same,TGI,[11],> 100 µM
same,TGI,[12],> 100 µM
same,TGI,[13],> 100 µM
same,TGI,[52],> 100 µM
same,TGI,[53],> 100 µM
same,TGI,[15],> 100 µM
same,TGI,[16],> 100 µM
same,TGI,[18],> 100 µM
same,TGI,[19],> 100 µM
same,TGI,[20],> 100 µM
same,TGI,[21],> 100 µM
same,TGI,[22],> 100 µM
same,TGI,[23],> 100 µM
same,TGI,[24],> 100 µM
same,TGI,[25],> 100 µM
same,TGI,[26],> 100 µM
same,TGI,[27],> 100 µM
same,TGI,[54],> 100 µM
same,TGI,[28],> 100 µM
same,TGI,[29],> 100 µM
same,TGI,[30],> 100 µM
same,TGI,[31],> 100 µM
same,TGI,[32],> 100 µM
same,TGI,[33],> 100 µM
same,TGI,[55],> 100 µM
same,TGI,[34],> 100 µM
same,TGI,[36],> 100 µM
same,TGI,[37],> 100 µM
same,TGI,[38],> 100 µM
same,TGI,[56],> 100 µM
same,TGI,[39],> 100 µM
same,TGI,[40],> 100 µM
same,TGI,[41],> 100 µM
same,TGI,[42],> 100 µM
same,TGI,[43],> 100 µM
same,TGI,[44],> 100 µM
same,TGI,[46],> 100 µM
same,TGI,[47],> 100 µM
same,TGI,[48],> 100 µM
same,TGI,[49],> 100 µM
same,TGI,[50],> 100 µM
COc1ccc2cc(C(C)C(O)c3cc(F)c(F)c(F)c3F)ccc2c1 (stereo not drawn),TGI,[1],> 100 µM
same,TGI,[2],> 100 µM
same,TGI,[3],> 100 µM
same,TGI,[4],> 100 µM
same,TGI,[5],> 100 µM
same,TGI,[6],> 100 µM
same,TGI,[7],> 100 µM
same,TGI,[51],> 100 µM
same,TGI,[8],> 100 µM
same,TGI,[57],> 100 µM
same,TGI,[58],> 100 µM
same,TGI,[10],> 100 µM
same,TGI,[11],> 100 µM
same,TGI,[12],> 100 µM
same,TGI,[13],> 100 µM
same,TGI,[14],> 100 µM
same,TGI,[52],> 100 µM
same,TGI,[15],> 100 µM
same,TGI,[16],> 100 µM
same,TGI,[17],> 100 µM
same,TGI,[18],> 100 µM
same,TGI,[19],> 100 µM
same,TGI,[20],> 100 µM
same,TGI,[21],> 100 µM
same,TGI,[22],> 100 µM
same,TGI,[23],> 100 µM
same,TGI,[24],> 100 µM
same,TGI,[27],> 100 µM
same,TGI,[54],> 100 µM
same,TGI,[28],> 100 µM
same,TGI,[29],> 100 µM
same,TGI,[30],> 100 µM
same,TGI,[31],43.6 µM
same,TGI,[32],> 100 µM
same,TGI,[33],> 100 µM
same,TGI,[34],> 100 µM
same,TGI,[36],> 100 µM
same,TGI,[59],> 100 µM
same,TGI,[38],> 100 µM
same,TGI,[56],> 100 µM
same,TGI,[40],> 100 µM
same,TGI,[42],> 100 µM
same,TGI,[43],> 100 µM
same,TGI,[44],> 100 µM
same,TGI,[45],> 100 µM
same,TGI,[46],> 100 µM
same,TGI,[47],> 100 µM
same,TGI,[48],> 100 µM
same,TGI,[49],> 100 µM
same,TGI,[50],> 100 µM
OC(c1nc2ccccc2s1)(C(F)(F)F)C(F)(F)F,TGI,[1],> 100 µM
same,TGI,[2],> 100 µM
same,TGI,[4],> 100 µM
same,TGI,[5],> 100 µM
same,TGI,[6],> 100 µM
same,TGI,[7],> 100 µM
same,TGI,[51],> 100 µM
same,TGI,[57],> 100 µM
same,TGI,[58],> 100 µM
same,TGI,[10],> 100 µM
same,TGI,[11],> 100 µM
same,TGI,[12],> 100 µM
same,TGI,[13],> 100 µM
same,TGI,[14],> 100 µM
same,TGI,[52],> 100 µM
same,TGI,[53],> 100 µM
same,TGI,[15],> 100 µM
same,TGI,[16],> 100 µM
same,TGI,[17],> 100 µM
same,TGI,[18],> 100 µM
same,TGI,[19],> 100 µM
same,TGI,[20],> 100 µM
same,TGI,[21],> 100 µM
same,TGI,[22],> 100 µM
same,TGI,[23],> 100 µM
same,TGI,[24],> 100 µM
same,TGI,[25],> 100 µM
same,TGI,[26],> 100 µM
same,TGI,[27],> 100 µM
same,TGI,[54],> 100 µM
same,TGI,[28],> 100 µM
same,TGI,[29],> 100 µM
same,TGI,[30],> 100 µM
same,TGI,[31],> 100 µM
same,TGI,[32],> 100 µM
same,TGI,[33],> 100 µM
same,TGI,[55],> 100 µM
same,TGI,[34],> 100 µM
same,TGI,[35],> 100 µM
same,TGI,[36],> 100 µM
same,TGI,[59],> 100 µM
same,TGI,[37],> 100 µM
same,TGI,[38],> 100 µM
same,TGI,[56],> 100 µM
same,TGI,[39],> 100 µM
same,TGI,[40],> 100 µM
same,TGI,[41],> 100 µM
same,TGI,[42],> 100 µM
same,TGI,[43],> 100 µM
same,TGI,[44],> 100 µM
same,TGI,[45],> 100 µM
same,TGI,[46],> 100 µM
same,TGI,[47],> 100 µM
same,TGI,[48],> 100 µM
same,TGI,[49],> 100 µM
same,TGI,[50],> 100 µM

# Reference: PubChem BioAssay (NCI)
